Tested on: CRP
Assay: Blood CRP in continuous IPA/Dry Eye disease model
Assay type: in vivo, mice
Protocol: Tear volume was measured for groups 3 and 4 and later comparison results for group 2 were received. The blood samples were collected from saphenous vein on day 5 (prior the treatment) and on day 7, just prior anesthesia and during the perfusion (cardiac puncture). On day 7, the animals were terminally anesthetized and transcardially perfused. Plasma was separated in all collected blood samples and kept frozen at −80° C. until the measurements. CRP measurements were performed using mouse CRP ELISA kit. […] In addition, animals were monitored daily for general health status. The lacrimal glands were embedded into paraffin, sectioned, stained and analyzed for possible pathology.
In this Example, CRP results from 3 separate preclinical tests are presented and analyzed. […] CRP present in mouse serum samples were analyzed using mouse CRP ELISA kit (GWB-3B960E, Genway Biotech Inc.). […]
In two other CRP tests, the effect of the DGA Activation in two disease models, continuous vs. discontinuous was analyzed. […] Logarithmic change of blood CRP during the 7-day disease follow up period of each mouse in all groups was calculated and the averages are presented in FIGS. 4b and 4c. […]
Brief description of the disease models: 1) continuous IPA -model (see Example 1a) and 2) discontinuous MPTP/PD -model. […] Diet consumption per cage is monitored carefully before and during the study follow-up period. […]

## O=C(O)[C@H](O)CO [DGA, D-glyceric acid]
4+7-day administration
  survival and health parameters: improved survival and health parameters
7-day IPA after 4-day priming, p-value=0.027
  blood CRP change vs 0-control: increased statistically significantly
